In ChEMBL document CHEMBL1201862, “PubChem BioAssay data set” (2004):
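Each compound was tested at five concentrations against cells in 96-well plates for 48 hours. At the GI50, growth is halved.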 The source made the active and inactive calls. Rule as the data show it: active = GI50 up to about 1.1 µM and inactive = higher.

How the values were obtained:
Experiment in all cases: growth of human tumour cells (NCI), 48 h
[1] = tested on: 786-0
[2] = tested on: A549
[3] = tested on: ACHN
[4] = tested on: BT-549
[5] = tested on: CAKI-1
[6] = tested on: CCRF-CEM
[7] = tested on: COLO 205
[8] = tested on: DU-145
[9] = tested on: EKVX
[10] = tested on: HCC 2998
[11] = tested on: HCT-116
[12] = tested on: HCT-15
[13] = tested on: HL-60
[14] = tested on: HOP-62
[15] = tested on: HOP-92
[16] = tested on: HT-29
[17] = tested on: Hs-578T
[18] = tested on: IGROV-1
[19] = tested on: K562
[20] = tested on: KM12
[21] = tested on: LOX IMVI
[22] = tested on: M14
[23] = tested on: MCF7
[24] = tested on: MDA-MB-231
[25] = tested on: MDA-MB-435
[26] = tested on: MDA-N
[27] = tested on: MOLT-4
[28] = tested on: Malme-3M
[29] = tested on: NCI-H226
[30] = tested on: NCI-H23
[31] = tested on: NCI-H460
[32] = tested on: NCI-H522
[33] = tested on: NCI/ADR-RES
[34] = tested on: OVCAR-3
[35] = tested on: OVCAR-4
[36] = tested on: OVCAR-5
[37] = tested on: OVCAR-8
[38] = tested on: PC-3
[39] = tested on: RPMI-8226
[40] = tested on: RXF 393
[41] = tested on: SF-268
[42] = tested on: SF-295
[43] = tested on: SF-539
[44] = tested on: SK-MEL-28
[45] = tested on: SK-MEL-2
[46] = tested on: SK-MEL-5
[47] = tested on: SK-OV-3
[48] = tested on: SN12C
[49] = tested on: SNB-19
[50] = tested on: SNB-75
[51] = tested on: SR
[52] = tested on: SW-620
[53] = tested on: T47D
[54] = tested on: TK-10
[55] = tested on: U-251
[56] = tested on: UACC-257
[57] = tested on: UACC-62
[58] = tested on: UO-31
[59] = tested on: A498

Question: For `COc1ccc(C(=O)CC(c2ccc(OC)c(OC)c2)c2c(O)oc3ccccc3c2=O)cc1OC` (configuration not stated), which GI50 [1] is on record?
Answer: > 100 µM (inactive)

Question: What about the GI50 [2] of the same compound?
Answer: > 100 µM (inactive)

Question: And the GI50 [3]?
Answer: > 100 µM (inactive)

Question: What about the GI50 [4] of the same compound?
Answer: > 100 µM (inactive)

Question: And the GI50 [5]?
Answer: > 100 µM (inactive)

Question: And the GI50 [6]?
Answer: > 100 µM (inactive)

Question: And the GI50 [7]?
Answer: > 100 µM (inactive)

Question: And the GI50 [8]?
Answer: > 100 µM (inactive)

Question: What about the GI50 [9] of the same compound?
Answer: > 100 µM (inactive)

Question: And the GI50 [10]?
Answer: > 100 µM (inactive)

Question: And the GI50 [11]?
Answer: > 100 µM (inactive)

Question: What about the GI50 [12] of the same compound?
Answer: > 100 µM

Question: What about the GI50 [13] of the same compound?
Answer: > 100 µM (inactive)

Question: And the GI50 [14]?
Answer: > 100 µM (inactive)

Question: What about the GI50 [15] of the same compound?
Answer: 28.4 µM (inactive)

Question: And the GI50 [16]?
Answer: > 100 µM (inactive)

Question: And the GI50 [17]?
Answer: > 100 µM (inactive)

Question: And the GI50 [18]?
Answer: > 100 µM (inactive)

Question: What about the GI50 [19] of the same compound?
Answer: > 100 µM (inactive)

Question: And the GI50 [20]?
Answer: > 100 µM (inactive)

Question: And the GI50 [21]?
Answer: > 100 µM (inactive)

Question: And the GI50 [22]?
Answer: > 100 µM (inactive)

Question: What about the GI50 [23] of the same compound?
Answer: > 100 µM (inactive)

Question: And the GI50 [24]?
Answer: > 100 µM (inactive)

Question: And the GI50 [25]?
Answer: > 100 µM (inactive)

Question: And the GI50 [26]?
Answer: > 100 µM (inactive)

Question: And the GI50 [27]?
Answer: > 100 µM (inactive)

Question: And the GI50 [28]?
Answer: > 100 µM (inactive)

Question: What about the GI50 [29] of the same compound?
Answer: > 100 µM (inactive)

Question: And the GI50 [30]?
Answer: > 100 µM (inactive)

Question: And the GI50 [31]?
Answer: > 100 µM (inactive)

Question: What about the GI50 [32] of the same compound?
Answer: > 100 µM (inactive)

Question: And the GI50 [33]?
Answer: > 100 µM (inactive)

Question: What about the GI50 [34] of the same compound?
Answer: > 100 µM (inactive)

Question: What about the GI50 [35] of the same compound?
Answer: > 100 µM (inactive)

Question: And the GI50 [36]?
Answer: > 100 µM (inactive)

Question: What about the GI50 [37] of the same compound?
Answer: > 100 µM (inactive)

Question: What about the GI50 [38] of the same compound?
Answer: > 100 µM (inactive)

Question: And the GI50 [39]?
Answer: 95.1 µM (inactive)

Question: And the GI50 [40]?
Answer: > 100 µM (inactive)

Question: And the GI50 [41]?
Answer: > 100 µM (inactive)

Question: What about the GI50 [42] of the same compound?
Answer: > 100 µM (inactive)

Question: And the GI50 [43]?
Answer: > 100 µM (inactive)

Question: And the GI50 [44]?
Answer: > 100 µM (inactive)

Question: And the GI50 [45]?
Answer: > 100 µM (inactive)

Question: What about the GI50 [46] of the same compound?
Answer: > 100 µM (inactive)

Question: What about the GI50 [47] of the same compound?
Answer: > 100 µM (inactive)

Question: What about the GI50 [48] of the same compound?
Answer: > 100 µM (inactive)

Question: What about the GI50 [49] of the same compound?
Answer: > 100 µM (inactive)

Question: What about the GI50 [50] of the same compound?
Answer: > 100 µM (inactive)

Question: And the GI50 [51]?
Answer: > 100 µM (inactive)

Question: And the GI50 [52]?
Answer: > 100 µM (inactive)

Question: What about the GI50 [53] of the same compound?
Answer: > 100 µM (inactive)

Question: What about the GI50 [54] of the same compound?
Answer: > 100 µM (inactive)

Question: What about the GI50 [55] of the same compound?
Answer: > 100 µM (inactive)

Question: And the GI50 [56]?
Answer: > 100 µM (inactive)

Question: What about the GI50 [57] of the same compound?
Answer: > 100 µM (inactive)

Question: What about the GI50 [58] of the same compound?
Answer: > 100 µM (inactive)

Question: With `CN(C)c1ccc(/C=N\NC(=O)Nc2cccc3ccccc23)cc1` as the compound, how does the GI50 [1] read?
Answer: 5.74 µM (inactive)

Question: And the GI50 [59]?
Answer: 8.99 µM (inactive)

Question: What about the GI50 [2] of the same compound?
Answer: 9.57 µM (inactive)

Question: And the GI50 [3]?
Answer: 6.98 µM (inactive)

Question: And the GI50 [4]?
Answer: 11.7 µM (inactive)

Question: And the GI50 [5]?
Answer: 3.25 µM (inactive)

Question: What about the GI50 [6] of the same compound?
Answer: 4.26 µM (inactive)

Question: And the GI50 [7]?
Answer: 4.99 µM (inactive)

Question: What about the GI50 [8] of the same compound?
Answer: 6.71 µM (inactive)

Question: What about the GI50 [9] of the same compound?
Answer: 0.215 µM (active)

Question: What about the GI50 [10] of the same compound?
Answer: 9.51 µM (inactive)

Question: And the GI50 [11]?
Answer: 5.52 µM (inactive)

Question: What about the GI50 [12] of the same compound?
Answer: 1.53 µM

Question: What about the GI50 [13] of the same compound?
Answer: 2.03 µM (inactive)

Question: What about the GI50 [14] of the same compound?
Answer: 8.67 µM (inactive)

Question: What about the GI50 [15] of the same compound?
Answer: 20.3 µM (inactive)

Question: What about the GI50 [16] of the same compound?
Answer: 2.62 µM (inactive)

Question: What about the GI50 [17] of the same compound?
Answer: 4.17 µM (inactive)

Question: What about the GI50 [18] of the same compound?
Answer: 9.91 µM (inactive)

Question: What about the GI50 [20] of the same compound?
Answer: 2.61 µM (inactive)

Question: And the GI50 [21]?
Answer: 4.15 µM (inactive)

Question: What about the GI50 [22] of the same compound?
Answer: 5.37 µM (inactive)

Question: What about the GI50 [23] of the same compound?
Answer: 3.86 µM (inactive)

Question: And the GI50 [24]?
Answer: 12.3 µM (inactive)

Question: And the GI50 [25]?
Answer: 0.927 µM (active)

Question: And the GI50 [26]?
Answer: 1.53 µM (inactive)

Question: What about the GI50 [27] of the same compound?
Answer: 4.56 µM (inactive)

Question: And the GI50 [28]?
Answer: 4.03 µM (inactive)

Question: What about the GI50 [29] of the same compound?
Answer: 0.208 µM (active)

Question: And the GI50 [30]?
Answer: 4.75 µM (inactive)

Question: What about the GI50 [31] of the same compound?
Answer: 4.31 µM (inactive)

Question: What about the GI50 [32] of the same compound?
Answer: 2.08 µM (inactive)

Question: And the GI50 [33]?
Answer: 7.41 µM (inactive)

Question: And the GI50 [35]?
Answer: 15.5 µM (inactive)

Question: And the GI50 [36]?
Answer: 19.4 µM (inactive)

Question: What about the GI50 [37] of the same compound?
Answer: 14.9 µM (inactive)

Question: And the GI50 [38]?
Answer: 6.62 µM (inactive)

Question: What about the GI50 [39] of the same compound?
Answer: 4.28 µM (inactive)

Question: What about the GI50 [40] of the same compound?
Answer: 20.7 µM (inactive)

Question: And the GI50 [41]?
Answer: 13 µM (inactive)

Question: And the GI50 [43]?
Answer: 4.4 µM (inactive)

Question: And the GI50 [44]?
Answer: 19.1 µM (inactive)

Question: And the GI50 [45]?
Answer: 2.9 µM (inactive)

Question: What about the GI50 [46] of the same compound?
Answer: 3.97 µM (inactive)

Question: And the GI50 [48]?
Answer: 11.8 µM (inactive)

Question: And the GI50 [49]?
Answer: 2.46 µM (inactive)

Question: And the GI50 [50]?
Answer: 9.02 µM (inactive)

Question: What about the GI50 [51] of the same compound?
Answer: 1.6 µM (inactive)

Question: What about the GI50 [52] of the same compound?
Answer: 6.11 µM (inactive)

Question: What about the GI50 [53] of the same compound?
Answer: 2.73 µM (inactive)

Question: And the GI50 [54]?
Answer: 12.2 µM (inactive)

Question: What about the GI50 [55] of the same compound?
Answer: 5.82 µM (inactive)

Question: What about the GI50 [56] of the same compound?
Answer: 3.74 µM (inactive)

Question: What about the GI50 [58] of the same compound?
Answer: 13.2 µM (inactive)
